# Results taken from publication PMC8963254, “Effects of Lysine N-ζ-Methylation in Ultrashort Tetrabasic Lipopeptides (UTBLPs) on the Potentiation of Rifampicin, Novobiocin, and Niclosamide in Gram-Negative Bacteria” (Antibiotics, 2022).
# Where two headings read alike, the source gives them in different places. Non-standard residues stand in square brackets, D forms with d. Residues, ends and D or L forms follow the SMILES beside them. *: point of attachment. Lys(Me) = CNCCCC[C@H](N)C(=O)O; Octanoyl = CCCCCCCC(=O)*
# Key:
# E. faecium ATCC 27270 = assay type: cell-based, Enterococcus faecium
# Procedure: (§1) The synergy of the UTBLPs with various antibiotics was assessed using checkerboard assay as previously described. Briefly, the combination of antibiotic and OMP at varying concentrations were incubated with bacterial inoculum (5 × 10^5 CFU/mL final concentration) at 37 °C for 18 h. Growth in the form of turbidity was confirmed using an EMax Plus microplate reader (Molecular Devices, Union City, CA, USA) at 590 nm. Fractional inhibitory concentration index (FICI) was used to evaluate the interaction between the antibiotic and the OMP. FICI is the sum of the FIC of the antibiotic and the FIC of the OMP. The FIC value is calculated by dividing the MIC of the agents in combination by the MIC of the agent alone. FICI ≤ 0.5 is synergistic, 0.5 < x ≤ 4 is additive, and >4 is antagonistic.
# E. coli ATCC 25922 = assay type: cell-based, Escherichia coli; details: ATCC 25922, 18 h
# Procedure: (§2) The in vitro antibacterial activity of the UTBLPs was assessed against wild-type and clinically isolated bacterial strains. To obtain the MIC of the compounds, the microbroth dilution susceptibility assay was performed according to the Clinical and Laboratory Standards Institute (CLSI, Wayne, PA, USA) guidelines and as previously described. Briefly, the compounds at varying concentrations were incubated with bacterial inoculum (5 × 10^5 CFU/mL final concentration) at 37 °C for 18 h. Growth in the form of turbidity was confirmed using an EMax Plus microplate reader (Molecular Devices, San Jose, CA, USA) at 590 nm.
# E. coli 94393 = assay: microbe, parasite or virus in culture; assay type: cell-based, Escherichia coli; details: 94393, 18 h
# In short: (§3)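 MIC was determined by broth microdilution following CLSI guidelines. Serially varied compound concentrations were incubated with bacterial inoculum at 5 × 10^5 CFU/mL (final) for 18 h at 37 °C. Growth was scored as turbidity by absorbance at 590 nm.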
# E. coli 94474 = assay: microbe, parasite or virus in culture; assay type: cell-based, Escherichia coli; details: 94474, 18 h
# In short: as §3
# E. cloacae 118564 = assay type: cell-based, Enterobacter cloacae; details: for MICUTBLP: UTBLP alone
# Procedure: as §1
# E. faecalis ATCC 29212 = assay type: cell-based, Enterococcus faecalis; details: ATCC 29212, 18 h
# Procedure: as §2
# MRSE 61589 = assay type: cell-based, Staphylococcus epidermidis
# Procedure: as §1
# MSSE 81388 = assay type: cell-based, Staphylococcus epidermidis
# Procedure: as §1
# A. baumannii AB027 = assay type: cell-based, Acinetobacter baumannii; details: for MICUTBLP: UTBLP alone
# Procedure: as §1
# A. baumannii 92247 = assay type: cell-based, Acinetobacter baumannii; details: for MICUTBLP: UTBLP alone
# Procedure: as §1
# A. baumannii ATCC 17978 = assay type: cell-based, Acinetobacter baumannii; details: for MICUTBLP: UTBLP alone
# Procedure: as §1
# S. aureus ATCC 29213 = assay type: cell-based, Staphylococcus aureus; details: ATCC 29213, 18 h
# Procedure: as §2
# MRSA ATCC 33592 = assay type: cell-based, Staphylococcus aureus; details: ATCC 33592, 18 h
# Procedure: as §2
# P. aeruginosa PAO1 = assay type: cell-based, Pseudomonas aeruginosa; details: for MICUTBLP: UTBLP alone
# Procedure: as §1
# [1] = tested on: P. aeruginosa PA259-96196; assay type: cell-based, Pseudomonas aeruginosa; details: for MICUTBLP: UTBLP alone
# Procedure: as §1
# K. pneumoniae 113250 = assay type: cell-based, Klebsiella pneumoniae; details: for MICUTBLP: UTBLP alone
# Procedure: as §1
# [2] = UTBLP alone, plate with chloramphenicol
# [3] = UTBLP in combination with chloramphenicol
# [4] = chloramphenicol in combination with the UTBLP
# [5] = UTBLP in combination with novobiocin
# [6] = UTBLP in combination with rifampicin
# [7] = novobiocin in combination with the UTBLP
# [8] = rifampicin in combination with the UTBLP
# [9] = UTBLP in combination with niclosamide
# [10] = niclosamide in combination with the UTBLP
compound,measurement,setting,value
CCCCCCCC(=O)NCCCC[C@H](NC(=O)CCCCCCC)C(=O)N[C@@H](CCCCNC)C(=O)N[C@@H](CCCCNC)C(=O)N[C@@H](CCCCNC)C(=O)N[C@@H](CCCCNC)C(N)=O [UTBLP 6] (Octanoyl-K(Octanoyl)[Lys(Me)][Lys(Me)][Lys(Me)][Lys(Me)]-NH2),Interpretation,E. faecium ATCC 27270; UTBLP + chloramphenicol,Additive (0.5 < x ≤ 4 is additive)
same,MICUTBLP,E. faecium ATCC 27270; [2],64 µg/mL
same,MICUTBLP [MICcombo],E. faecium ATCC 27270; [3],4 µg/mL
same,MICchloramphenicol [MICcombo],E. faecium ATCC 27270; [4],4 µg/mL
same,MIC,E. coli ATCC 25922,32 µg/mL
same,MIC,E. coli 94393,64 µg/mL
same,MIC,E. coli 94474,> 128 µg/mL
same,Interpretation,E. cloacae 118564; UTBLP + novobiocin,Synergy (FICI ≤ 0.5 is synergistic)
same,Interpretation,E. cloacae 118564; UTBLP + rifampicin,Synergy (FICI ≤ 0.5 is synergistic)
same,MICUTBLP,E. cloacae 118564; plate with novobiocin,> 128 µg/mL
same,MICUTBLP,E. cloacae 118564; plate with rifampicin,> 128 µg/mL
same,MICUTBLP [MICcombo],E. cloacae 118564; [5],16 µg/mL
same,MICUTBLP [MICcombo],E. cloacae 118564; [6],16 µg/mL
same,MICantibiotic [MICcombo],E. cloacae 118564; [7],1 µg/mL
same,MICantibiotic [MICcombo],E. cloacae 118564; [8],0.5 µg/mL
same,MIC,E. faecalis ATCC 29212,32 µg/mL
same,Interpretation,MRSE 61589; UTBLP + chloramphenicol,Additive (0.5 < x ≤ 4 is additive)
same,MICUTBLP,MRSE 61589; [2],16 µg/mL
same,MICUTBLP [MICcombo],MRSE 61589; [3],8 µg/mL
same,MICchloramphenicol [MICcombo],MRSE 61589; [4],4 µg/mL
same,Interpretation,MSSE 81388; UTBLP + chloramphenicol,Additive (0.5 < x ≤ 4 is additive)
same,MICUTBLP,MSSE 81388; [2],16 µg/mL
same,MICUTBLP [MICcombo],MSSE 81388; [3],0.25 µg/mL
same,MICchloramphenicol [MICcombo],MSSE 81388; [4],4 µg/mL
same,Interpretation,A. baumannii AB027; UTBLP + novobiocin,Synergy (FICI ≤ 0.5 is synergistic)
same,Interpretation,A. baumannii AB027; UTBLP + rifampicin,Synergy (FICI ≤ 0.5 is synergistic)
same,MICUTBLP,A. baumannii AB027; plate with novobiocin,> 128 µg/mL
same,MICUTBLP,A. baumannii AB027; plate with rifampicin,> 128 µg/mL
same,MICUTBLP [MICcombo],A. baumannii AB027; [5],16 µg/mL
same,MICUTBLP [MICcombo],A. baumannii AB027; [6],16 µg/mL
same,MICantibiotic [MICcombo],A. baumannii AB027; [7],0.031 µg/mL
same,MICantibiotic [MICcombo],A. baumannii AB027; [8],0.002 µg/mL
same,Interpretation,A. baumannii 92247; UTBLP + novobiocin,Synergy (FICI ≤ 0.5 is synergistic)
same,Interpretation,A. baumannii 92247; UTBLP + rifampicin,Synergy (FICI ≤ 0.5 is synergistic)
same,MICUTBLP,A. baumannii 92247; plate with novobiocin,32 µg/mL
same,MICUTBLP,A. baumannii 92247; plate with rifampicin,32 µg/mL
same,MICUTBLP [MICcombo],A. baumannii 92247; [5],1 µg/mL
same,MICUTBLP [MICcombo],A. baumannii 92247; [6],0.5 µg/mL
same,MICantibiotic [MICcombo],A. baumannii 92247; [7],0.125 µg/mL
same,MICantibiotic [MICcombo],A. baumannii 92247; [8],0.063 µg/mL
same,Interpretation,A. baumannii ATCC 17978; UTBLP + chloramphenicol,Additive (0.5 < x ≤ 4 is additive)
same,Interpretation,A. baumannii ATCC 17978; UTBLP + niclosamide,Synergy (FICI ≤ 0.5 is synergistic)
same,Interpretation,A. baumannii ATCC 17978; UTBLP + novobiocin,Synergy (FICI ≤ 0.5 is synergistic)
same,Interpretation,A. baumannii ATCC 17978; UTBLP + rifampicin,Synergy (FICI ≤ 0.5 is synergistic)
same,MICUTBLP,A. baumannii ATCC 17978; plate with chloramphenicol,64 µg/mL
same,MICUTBLP,A. baumannii ATCC 17978; plate with niclosamide,64 µg/mL
same,MICUTBLP,A. baumannii ATCC 17978; plate with novobiocin,64 µg/mL
same,MICUTBLP,A. baumannii ATCC 17978; plate with rifampicin,64 µg/mL
same,MICUTBLP [MICcombo],A. baumannii ATCC 17978; [3],8 µg/mL
same,MICUTBLP [MICcombo],A. baumannii ATCC 17978; [9],1 µg/mL
same,MICUTBLP [MICcombo],A. baumannii ATCC 17978; [5],4 µg/mL
same,MICUTBLP [MICcombo],A. baumannii ATCC 17978; [6],2 µg/mL
same,MICantibiotic [MICcombo],A. baumannii ATCC 17978; [4],32 µg/mL
same,MICantibiotic [MICcombo],A. baumannii ATCC 17978; [10],4 µg/mL
same,MICantibiotic [MICcombo],A. baumannii ATCC 17978; [7],0.25 µg/mL
same,MICantibiotic [MICcombo],A. baumannii ATCC 17978; [8],0.031 µg/mL
same,MIC,S. aureus ATCC 29213,128 µg/mL
same,MIC,MRSA ATCC 33592,>128 µg/mL
same,Interpretation,P. aeruginosa PAO1; UTBLP + chloramphenicol,Synergy (FICI ≤ 0.5 is synergistic)
same,Interpretation,P. aeruginosa PAO1; UTBLP + niclosamide,Synergy (FICI ≤ 0.5 is synergistic)
same,Interpretation,P. aeruginosa PAO1; UTBLP + novobiocin,Synergy (FICI ≤ 0.5 is synergistic)
same,Interpretation,P. aeruginosa PAO1; UTBLP + rifampicin,Synergy (FICI ≤ 0.5 is synergistic)
same,MICUTBLP,P. aeruginosa PAO1; plate with chloramphenicol,> 128 µg/mL
same,MICUTBLP,P. aeruginosa PAO1; plate with niclosamide,> 128 µg/mL
same,MICUTBLP,P. aeruginosa PAO1; plate with novobiocin,> 128 µg/mL
same,MICUTBLP,P. aeruginosa PAO1; plate with rifampicin,> 128 µg/mL
same,MICUTBLP [MICcombo],P. aeruginosa PAO1; [3],16 µg/mL
same,MICUTBLP [MICcombo],P. aeruginosa PAO1; [9],16 µg/mL
same,MICUTBLP [MICcombo],P. aeruginosa PAO1; [5],16 µg/mL
same,MICUTBLP [MICcombo],P. aeruginosa PAO1; [6],16 µg/mL
same,MICantibiotic [MICcombo],P. aeruginosa PAO1; [4],2 µg/mL
same,MICantibiotic [MICcombo],P. aeruginosa PAO1; [10],2 µg/mL
same,MICantibiotic [MICcombo],P. aeruginosa PAO1; [7],32 µg/mL
same,MICantibiotic [MICcombo],P. aeruginosa PAO1; [8],1 µg/mL
same,Interpretation,[1]; UTBLP + novobiocin,Synergy (FICI ≤ 0.5 is synergistic)
same,Interpretation,[1]; UTBLP + rifampicin,Synergy (FICI ≤ 0.5 is synergistic)
same,MICUTBLP,[1]; plate with novobiocin,> 128 µg/mL
same,MICUTBLP,[1]; plate with rifampicin,> 128 µg/mL
same,MICUTBLP [MICcombo],[1]; [5],16 µg/mL
same,MICUTBLP [MICcombo],[1]; [6],16 µg/mL
same,MICantibiotic [MICcombo],[1]; [7],128 µg/mL
same,MICantibiotic [MICcombo],[1]; [8],2 µg/mL
same,Interpretation,K. pneumoniae 113250; UTBLP + novobiocin,Synergy (FICI ≤ 0.5 is synergistic)
same,Interpretation,K. pneumoniae 113250; UTBLP + rifampicin,Synergy (FICI ≤ 0.5 is synergistic)
same,MICUTBLP,K. pneumoniae 113250; plate with novobiocin,> 128 µg/mL
same,MICUTBLP,K. pneumoniae 113250; plate with rifampicin,> 128 µg/mL
same,MICUTBLP [MICcombo],K. pneumoniae 113250; [5],16 µg/mL
same,MICUTBLP [MICcombo],K. pneumoniae 113250; [6],16 µg/mL
same,MICantibiotic [MICcombo],K. pneumoniae 113250; [7],2 µg/mL
same,MICantibiotic [MICcombo],K. pneumoniae 113250; [8],1 µg/mL
